Values quoted from earlier work in paper PMC10537421, “Co-Dispersion Delivery Systems with Solubilizing Carriers Improving the Solubility and Permeability of Cannabinoids (Cannabidiol, Cannabidiolic Acid, and Cannabichromene) from Cannabis sativa (Henola Variety) Inflorescences” (Pharmaceutics, 2023).
Read-outs that look alike come from different tables or passages of the source.

Columns and labels:
[1] = for CBD released: SIF and SGF
[2] = for bioavailability: oral administration; for bioavailability after inhalation: smoking or vaporizing

SMILES	pKa (approximate)	pKa	CBD released ([1]; 1 h)	CBD released ([1]; 48 h)	CBD detected after SIF digestion (bioaccessibility) ([1]; simulated intestinal fluid) [%]	bioavailability after sublingual administration [2]	bioavailability [2]	bioavailability after inhalation [2]
CCCCCc1cc(O)c2c(c1)OC(C)(CCC=C(C)C)C=C2 (stereo not drawn) [CBC, cannabichromene]	9.5–10.3	–	–	–	–	–	–	–
C=C(C)[C@@H]1CCC(C)=C[C@H]1c1c(O)cc(CCCCC)cc1O [CBD, cannabidiol]	–	9.3–10.3	less than 3%	less than 10%	29	13–19%	≈ 6%	11–45%
C=C(C)[C@@H]1CCC(C)=C[C@H]1c1c(O)cc(CCCCC)c(C(=O)O)c1O [CBDA, cannabidiolic acid]	~2.9	–	–	–	–	–	–	–
CCCCCc1cc(O)c2c(c1)OC(C)(C)[C@@H]1CCC(C)=C[C@@H]21 [THC, tetrahydrocannabinol]	–	–	–	–	–	13–14%	4–12%	10% to 35%
